Test results: patent publication US20210253575A1, “PYRROLIDINE AMINE COMPOUNDS FOR THE TREATMENT OF AUTOIMMUNE DISEASE” (Hoffmann-La Roche Inc., priority 2018, published 2021)

These molecules were tested against T1, human TLR9 (Homo sapiens, UniProt Q9NR96) (assay: HEK293-Blue-hTLR-9 cells assay (SEAP reporter, ODN2006 stimulation)). Conditions: HEK293-Blue-hTLR9 cells, ODN2006 ligand, 20 hrs incubation.
T1 sequence (Q9NR96 26-1032): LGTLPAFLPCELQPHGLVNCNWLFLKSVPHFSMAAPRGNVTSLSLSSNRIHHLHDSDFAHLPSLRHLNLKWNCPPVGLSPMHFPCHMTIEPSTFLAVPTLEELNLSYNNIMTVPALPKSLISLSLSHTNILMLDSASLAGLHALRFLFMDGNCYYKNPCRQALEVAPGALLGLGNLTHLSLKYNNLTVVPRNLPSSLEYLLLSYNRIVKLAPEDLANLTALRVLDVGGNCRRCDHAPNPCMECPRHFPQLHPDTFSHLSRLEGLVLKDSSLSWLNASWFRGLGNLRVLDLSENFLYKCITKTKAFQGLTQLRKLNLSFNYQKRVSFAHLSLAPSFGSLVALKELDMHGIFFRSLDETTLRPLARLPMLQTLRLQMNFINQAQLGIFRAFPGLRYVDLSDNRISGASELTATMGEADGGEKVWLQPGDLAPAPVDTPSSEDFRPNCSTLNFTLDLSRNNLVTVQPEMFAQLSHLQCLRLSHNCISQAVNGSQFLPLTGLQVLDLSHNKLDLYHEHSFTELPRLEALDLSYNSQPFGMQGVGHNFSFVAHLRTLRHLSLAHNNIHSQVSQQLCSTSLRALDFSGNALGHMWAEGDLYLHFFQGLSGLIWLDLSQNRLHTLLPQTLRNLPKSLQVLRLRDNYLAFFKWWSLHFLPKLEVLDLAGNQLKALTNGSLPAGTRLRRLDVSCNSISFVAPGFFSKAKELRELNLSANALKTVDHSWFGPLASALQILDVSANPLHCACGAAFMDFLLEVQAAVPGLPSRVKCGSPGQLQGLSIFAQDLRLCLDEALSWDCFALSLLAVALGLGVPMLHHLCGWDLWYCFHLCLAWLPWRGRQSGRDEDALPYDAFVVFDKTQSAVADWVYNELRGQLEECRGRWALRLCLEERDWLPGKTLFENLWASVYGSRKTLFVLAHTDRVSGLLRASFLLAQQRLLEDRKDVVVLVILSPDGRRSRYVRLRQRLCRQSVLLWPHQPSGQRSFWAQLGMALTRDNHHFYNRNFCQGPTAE
Type: cell-based
Procedure: The following tests were carried out in order to determine the activity of the compounds of formula (I) in HEK293-Blue-hTLR-7/8/9 cells assay.
HEK293-Blue-hTLR-9 Cells Assay:
A stable HEK293-Blue-hTLR-9 cell line was purchased from InvivoGen (Cat. #: hkb-htlr9, San Diego, Calif., USA). These cells were originally designed for studying the stimulation of human TLR9 by monitoring the activation of NF-κB. A SEAP (secreted embryonic alkaline phosphatase) reporter gene was placed under the control of the IFN-β minimal promoter fused to five NF-κB and AP-1-binding sites. The SEAP was induced by activating NF-κB and AP-1 via stimulating HEK-Blue hTLR9 cells with TLR9 ligands. Therefore the reporter expression was declined by TLR9 antagonist under the stimulation of a ligand, such as ODN2006 (Cat. #: tlrl-2006-1, Invivogen, San Diego, Calif., USA), for incubation of 20 hrs. The cell culture supernatant SEAP reporter activity was determined using QUANTI-Blue™ kit (Cat. #: rep-qb1, Invivogen, San Diego, Calif., USA) at a wavelength of 640 nm, a detection medium that turns purple or blue in the presence of alkaline phosphatase.
HEK293-Blue-hTLR9 cells were incubated at a density of 250,000˜450,000 cells/mL in a volume of 170 μL in a 96-well plate in Dulbecco's Modified Eagle's medium (DMEM) containing 4.5 g/L glucose, 50 U/mL penicillin, […], […], 2 mM L-glutamine, 10% (v/v) heat-inactivated fetal bovine serum with addition of 20 μL test compound in a serial dilution in the presence of final DMSO at 1% and 10 μL of 20 uM ODN2006 in above DMEM, perform incubation under 37° C. in a CO2incubator for 20 hrs. Then 20 μL of the superatant from each well was incubated with 180 μL Quanti-blue substrate solution at 37° C. for 2 hrs and the absorbance was read at 620˜655 nm using a spectrophotometer. The signalling pathway that TLR9 activation leads to downstream NF-κB activation has been widely accepted, and therefore similar reporter assay was modified for evaluating TLR9 antagonist.
`N#Cc1ccc(N2CC(CN3CCC4(CCNCC4)CC3)C3(CC3)C2)c2nccnc12` (stereo not shown) [Example 16, 8-[7-(3,9-Diazaspiro[5.5]undecan-3-ylmethyl)-5-azaspiro[2.4]heptan-5-yl]quinoxaline-5-carbonitrile] showed an IC50 of 50 nM.
Work on `C[C@H]1CN(c2ccc(C#N)c3nccnc23)C[C@@H]1CN1CCC2(CCNCC2)CC1` [Example 17, 8-[(3S,4R)-3-(3,9-diazaspiro[5.5]undecan-3-ylmethyl)-4-methyl-pyrrolidin-1-yl]quinoxaline-5-carbonitrile] yielded an IC50 of 134 nM.
Work on `N#Cc1ccc(N2CC(CN3C[C@H]4CNC[C@H]4C3)C3(CC3)C2)c2nccnc12` (stereo partly drawn) [Example 18, 8-[7-[[(3aR,6aS)-2,3,3a,4,6,6a-hexahydro-H-pyrrolo[3,4-c]pyrrol-5-yl]methyl]-5-azaspiro[2.4]heptan-5-yl]quinoxaline-5-carbonitrile] yielded an IC50 of 97 nM.
`FC(F)(F)c1ccc(N2CC(CN3CCNCC3)C3(CC3)C2)c2nccnc12` (stereo not shown) [Example 20, 5-[7-(Piperazin-1-ylmethyl)-5-azaspiro[2.4]heptan-5-yl]-8-(trifluoromethyl)quinoxaline] showed an IC50 of 5640 nM.
For `N#Cc1ccc(N2CC(CN3CCC4(CCCNC4)C3)C3(CC3)C2)c2nccnc12` (stereo not shown) [Example 22, 8-[7-(2,9-Diazaspiro[4.5]decan-2-ylmethyl)-5-azaspiro[2.4]heptan-5-yl]quinoxaline-5-carbonitrile], the IC50 was 153 nM.
Work on `C[C@H]1CN(c2ccc(C#N)c3ncccc23)C[C@@H]1CN1CCC2(CCNCC2)CC1` [Example 23, 5-[(3S,4R)-3-(3,9-diazaspiro[5.5]undecan-3-ylmethyl)-4-methyl-pyrrolidin-1-yl]quinoline-8-carbonitrile] yielded an IC50 of 45 nM.
For `N#Cc1ccc(N2CC(CN3CC4(CCCNC4)C3)C3(CC3)C2)c2nccnc12` (stereo not shown) [Example 24, 8-[7-(2,8-Diazaspiro[3.5]nonan-2-ylmethyl)-5-azaspiro[2.4]heptan-5-yl]quinoxaline-5-carbonitrile], the IC50 was 82 nM.
`N#Cc1ccc(N2CC(CN3C4CCC3CC(N)C4)C3(CC3)C2)c2nccnc12` (stereo not shown) [Example 25, 8-[7-[(3-Amino-8-azabicyclo[3.2.1]octan-8-yl)methyl]-5-azaspiro[2.4]heptan-5-yl]quinoxaline-5-carbonitrile] was tested, and the IC50 was 75 nM.
Molecule `N#Cc1ccc(N2C[C@H](CN3CCC(N)CC3)[C@@H](C(F)(F)F)C2)c2nccnc12` [Example 26, 8-[(3S,4R)-3-[(4-Amino-1-piperidyl)methyl]-4-(trifluoromethyl)pyrrolidin-1-yl]quinoxaline-5-carbonitrile] has an IC50 of 258 nM.
With `C[C@H]1CN(c2ccc(C#N)c3nccnc23)C[C@@H]1CN1CCC2(CCNC2)C1` (stereo partly drawn) [Example 30, 8-[(3S,4R)-3-(2,7-diazaspiro[4.4]nonan-2-ylmethyl)-4-methyl-pyrrolidin-1-yl]quinoxaline-5-carbonitrile] the IC50 was 307 nM.
Work on `FC(F)(F)c1ccc(N2CC(CN3CCC4(CCNCC4)CC3)C3(CC3)C2)c2nccnc12` (stereo not shown) [Example 31, 3-[[5-[8-(Trifluoromethyl)quinoxalin-5-yl]-5-azaspiro[2.4]heptan-7-yl]methyl]-3,9-diazaspiro[5.5]undecane] yielded an IC50 of 383 nM.
`N#Cc1ccc(N2CC(CN3CCC4(CCNCC4)C3)C3(CC3)C2)c2nccnc12` (stereo not shown) [Example 32, 8-[7-(2,8-Diazaspiro[4.5]decan-2-ylmethyl)-5-azaspiro[2.4]heptan-5-yl]quinoxaline-5-carbonitrile] was tested, and the IC50 was 80 nM.
`C[C@H]1CN(c2ccc(C#N)c3ncccc23)C[C@@H]1CN1CCC2(CCNC2)C1` (stereo partly drawn) [Example 35, 5-[(3S,4R)-3-(2,7-diazaspiro[4.4]nonan-2-ylmethyl)-4-methyl-pyrrolidin-1-yl]quinoline-8-carbonitrile] showed an IC50 of 50 nM.
`N#Cc1ccc(N2CCC(CN3CCC4(CCNCC4)CC3)C2)c2nccnc12` (stereo not shown) [Example 37, 8-[3-(3,9-Diazaspiro[5.5]undecan-3-ylmethyl)pyrrolidin-1-yl]quinoxaline-5-carbonitrile] was tested, and the IC50 was 32 nM.
Work on `N#Cc1ccc(N2CC(CNC3CCCNCC3)C3(CC3)C2)c2nccnc12` (stereo not shown) [Example 39, 8-[7-[(Azepan-4-ylamino)methyl]-5-azaspiro[2.4]heptan-5-yl]quinoxaline-5-carbonitrile] yielded an IC50 of 97 nM.
With `C[C@@H]1CN(c2ccc(C(F)(F)F)c3nccnc23)C[C@H]1CNC1CCCNCC1` (stereo partly shown) [Example 40] the IC50 was 685 nM.
`FC(F)(F)c1ccc(N2CC(CN3C[C@H]4CNC[C@H]4C3)C3(CC3)C2)c2nccnc12` (stereo partly drawn) [Example 41, 5-[7-[[(3aR,6aS)-2,3,3a,4,6,6a-hexahydro-H-pyrrolo[3,4-c]pyrrol-5-yl]methyl]-5-azaspiro[2.4]heptan-5-yl]-8-(trifluoromethyl)quinoxaline] showed an IC50 of 1200 nM.
Molecule `N#Cc1ccc(N2CC(CN3CC4(CC(N)C4)C3)C3(CC3)C2)c2nccnc12` (stereo not shown) [Example 42, 8-[7-[(6-Amino-2-azaspiro[3.3]heptan-2-yl)methyl]-5-azaspiro[2.4]heptan-5-yl]quinoxaline-5-carbonitrile] has an IC50 of 153 nM.
`N#Cc1ccc(N2CC(CN3CCC4(CCNC4)C3)C3(CC3)C2)c2cccnc12` (stereo not shown) [Example 43, 5-[7-(2,7-Diazaspiro[4.4]nonan-2-ylmethyl)-5-azaspiro[2.4]heptan-5-yl]quinoline-8-carbonitrile] showed an IC50 of 62 nM.
`N#Cc1ccc(N2C[C@H](CN3CCC4(CCCNC4)CC3)[C@@H](C(F)(F)F)C2)c2nccnc12` [Example 45, 8-[(3S,4R)-3-(2,9-diazaspiro[5.5]undecan-9-ylmethyl)-4-(trifluoromethyl)pyrrolidin-1-yl]quinoxaline-5-carbonitrile] was tested, and the IC50 was 224 nM.
With `N#Cc1ccc(N2C[C@H](CN3CCC4(CCNCC4)C3)[C@@H](C(F)(F)F)C2)c2nccnc12` [Example 46, 8-[(3S,4R)-3-(2,8-diazaspiro[4.5]decan-2-ylmethyl)-4-(trifluoromethyl)pyrrolidin-1-yl]quinoxaline-5-carbonitrile] the IC50 was 275 nM.
`N#Cc1ccc(N2C[C@H](CN3CC4(CC(N)C4)C3)[C@@H](C(F)(F)F)C2)c2nccnc12` [Example 47, 8-[(3S,4R)-3-[(6-amino-2-azaspiro[3.3]heptan-2-yl)methyl]-4-(trifluoromethyl)pyrrolidin-1-yl]quinoxaline-5-carbonitrile] gave an IC50 of 177 nM.
In the case of `N#Cc1ccc(N2C[C@H](CN3CC4(CCNCC4)C3)[C@@H](C(F)(F)F)C2)c2nccnc12` [Example 48, 8-[(3S,4R)-3-(2,7-diazaspiro[3.5]nonan-2-ylmethyl)-4-(trifluoromethyl)pyrrolidin-1-yl]quinoxaline-5-carbonitrile], the IC50 is reported as 97 nM.
`N#Cc1ccc(N2CC(CN3CCC4(CC3)CNCCO4)C3(CC3)C2)c2nccnc12` (stereo not shown) [Example 49, 8-[7-(1-Oxa-4,9-diazaspiro[5.5]undecan-9-ylmethyl)-5-azaspiro[2.4]heptan-5-yl]quinoxaline-5-carbonitrile] showed an IC50 of 87 nM.
`N#Cc1ccc(N2CC(CN3CC4CCNCC43)C3(CC3)C2)c2nccnc12` (stereo not shown) [Example 50, 8-[7-(3,8-Diazabicyclo[4.2.0]octan-8-ylmethyl)-5-azaspiro[2.4]heptan-5-yl]quinoxaline-5-carbonitrile] showed an IC50 of 259 nM.
